# Test results as given in US20230250433A1, “METHODS AND COMPOSITIONS FOR TREATMENT OF APC-DEFICIENT CANCER” (Board of Regents, The University of Texas System, priority 2020, published 2023).
# Tests used:
# [1] = system: LS180 and HT-29 cell lines; assay: Colony formation assay with Gas6 and R428; assay type: cell-based, human; conditions: Gas6 25 ng with R428 1 μM, 36 hr
# From the text: (§1) The red box indicates Axl. […] Six replicates per group. two-tailed t-test. *P<0.05. […] Epithelial cells are stained with EpCam and indicated by GFP. X63 magnification. […] Total flux measurement of at the end point. **P<0.01. two-tailed t-test. […] Total flux measurement of tumors was done at the end point. **P<0.01. two-tailed t-test.
# (§2) Gas6 is a ligand of Axl and is secreted mainly by tumor-associated macrophages in the TME (Loges et al., 2010), raising the possibility that macrophage-derived Gas6 might activate Axl to support the growth of APC-deficient cancer cells.
# Colorectal cancer cell proliferation in vitro was assayed through colony formation. 1×10^3 cells were seeded in each well of 6-well plates and cultured for 5-7 days. At the end point, cells were fixed and stained with 0.5% crystal violet in 25% methanol for 1 hr. These studies were performed in triplicate.
# Axl = biological target: T1, Axl (Mus musculus, UniProt Q00993); assay: Immunoblots for Axl and phospho-Axl; assay type: cell-based; conditions: APC-WT and APC-KO MC38 cells; R428 0.2 μM 24 h; rmGAS6 24 h
# T1 construct: immunoblots for Axl and phospho-Axl in APC-WT and APC-KO MC38 cells after R428 treatment (0.2 μM, 24 h); endogenous in cells; host or cells: MC38 mouse colorectal cancer cells, APC-WT and isogenic APC-KO
# T1 sequence (Q00993 19-888): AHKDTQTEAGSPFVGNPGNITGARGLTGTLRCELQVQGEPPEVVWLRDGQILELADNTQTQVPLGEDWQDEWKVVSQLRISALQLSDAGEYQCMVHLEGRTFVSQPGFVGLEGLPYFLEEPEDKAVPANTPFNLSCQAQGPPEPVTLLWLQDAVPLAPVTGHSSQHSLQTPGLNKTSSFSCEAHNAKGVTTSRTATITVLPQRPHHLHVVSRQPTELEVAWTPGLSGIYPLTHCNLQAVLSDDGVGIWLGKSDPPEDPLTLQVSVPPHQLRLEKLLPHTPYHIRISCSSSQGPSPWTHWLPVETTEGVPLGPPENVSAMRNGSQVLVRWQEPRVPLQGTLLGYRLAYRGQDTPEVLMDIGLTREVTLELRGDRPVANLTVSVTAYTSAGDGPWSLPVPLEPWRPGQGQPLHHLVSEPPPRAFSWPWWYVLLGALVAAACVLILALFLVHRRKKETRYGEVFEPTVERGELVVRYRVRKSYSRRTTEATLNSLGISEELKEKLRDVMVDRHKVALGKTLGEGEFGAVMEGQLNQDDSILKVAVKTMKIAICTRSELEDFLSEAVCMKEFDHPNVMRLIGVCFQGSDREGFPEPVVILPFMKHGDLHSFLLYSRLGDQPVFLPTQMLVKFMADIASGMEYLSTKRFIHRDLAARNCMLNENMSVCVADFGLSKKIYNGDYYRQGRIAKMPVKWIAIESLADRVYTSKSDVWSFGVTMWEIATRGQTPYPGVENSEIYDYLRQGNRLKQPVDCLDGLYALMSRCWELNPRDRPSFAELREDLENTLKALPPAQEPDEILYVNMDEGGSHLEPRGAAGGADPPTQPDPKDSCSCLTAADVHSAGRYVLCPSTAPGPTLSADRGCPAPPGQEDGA
# From the text: as §1, §2
# Cell lysates were prepared with RIPA lysis buffer (Roche) with protease inhibitor […] Immunoblotting was performed following standard protocol. Antibodies were purchased from the indicated companies.
# [2] = system: APC-WT and APC-KO MC38 cells; assay: Cell viability assay with R428; assay type: cell-based, mouse; conditions: R428 0.5 μM, 48 h
# From the text: as §1, §2
# CT26 = assay: Orthotopic co-injection of CT26 cells and Raw264.7 macrophages, tumor growth; assay type: in vivo, mouse; conditions: Raw264.7 pre-treated with 100 ng of CXCL5 for 48 h before injection; BalB/CJ mice
# Protocol: as §1
# (§3) To evaluate whether secreted factors from cancer cells might upregulate Gas6 expression in macrophages, BMDMs were incubated with conditioned media from MC38 cell lines. […] (FIG. 15H). Finally, to validate the roles of Gas6 in promoting tumor growth in vivo, CT26 cell lines and two independent Raw 264.7 shGas6 cell lines were co-injected into syngeneic Balb/CJ mice (FIG. 15I).
# Mice were grouped by 5 animals in large plastic cages and were maintained under pathogen-free conditions. All animal studies were performed with the approval of MD Anderson Cancer Center's Institutional Animal Care and Use Committee (IACUC). NSG (NOD.Cg-Prkdc^scid Il2rg^tm1Wjl/SzJ), C57BL/J6J, and BALB/cJ mice were purchased from Jackson laboratory (Stock No: 005557, 000664, 000651). Colorectal orthotopic xenograft tumor models were established by following protocol (Tseng et al., 2007, JoVE).
# Raw264.7 = assay: Transwell migration assay of macrophages in conditioned media; assay type: cell-based, mouse; conditions: recombinant CXCL5 protein 50 ng, 36 hr
# Protocol: Two-way ANOVA analysis. […] Dox food was applied at day 5 post-orthotopic injection to induce TDO2 knockdown in vivo. n=4 per group. n.s.P>0.05, *P<0.05, […], ****P<0.0001. two-tailed t-test. […] FIGS. 12D and 12E show quantification of macrophages (F4/80+; FIG. 12D) and M2 macrophages (CD206+; FIG. 12E) in tumors shown in FIG. 12C. CyTOF data analyzed by FlowJo. Data represent mean±s.d., n=3 per group. *P<0.05, **P<0.01. two-tailed t-test. […] Recombinant CXCL5 protein (50 ng) and SX-682 (1 μM) were added to harvested condition media for 36 hr. Scale bar, 100 μm. n=3 biological replicates. Quantification is shown in lower panel. n.s. P>0.05, ***P<0.001, ****P<0.0001. two-tailed t-test. […] Clondronate liposomes or control encapsome liposomes were given intraperitoneally (100 μl) at day 2 post-orthotopic injection and three times a week. […]
# Macrophages (1×10^4 for Raw264.7 and BMDM) were suspended in serum-free culture medium and seeded into 24-well Transwell inserts ([…]). […] After 24 h, the migrated macrophages were fixed and stained with crystal violet (0.05%, sigma), and then counted as cells per field of view under microscope or measured as OD590 nm (expressed as migration index) after crystal violet was dissolved.
# BMDM [3] = assay: RT-qPCR analysis of Gas6 expression in BMDM; assay type: cell-based, mouse; conditions: Kyn 1 mM, CXCL5 50 ng, Gas6 25 ng, 24 hr
# Protocol: as §1, §3
# (§4) RNA was isolated from cells using Trizol (Invitrogen) following the manufacturer's instructions. RNA (200-500 ng) was first treated with RNase-free DNase I using the DNA-free kit (Ambion) to remove all genomic DNA, and then reverse-transcribed into cDNA using an ABI High Capacity cDNA RT Kit (Invitrogen). The cDNA was analyzed using real-time quantitative PCR (SYBR Green, Invitrogen) with an Applied Biosystems 7900 Sequence Detection System. Each reaction was performed in triplicate. The expression of each gene was normalized by that of mouse Actin or human GAPDH.
# BMDM [4] = assay: RT-qPCR of M2 macrophage signature genes in BMDM; assay type: cell-based, mouse; conditions: CXCL5 50 ng, Kyn 1 mM, 24 hr
# Protocol: (§5) Scale bars, 50μm. […] Scale bars, 100 μm. […] (isTDO2 and isTDO2/shCXCL5 #2 groups, n=7, isTDO2/shCXCL5 #3, n=8). ****P<0.0001. two-tailed t-test. […] (shControl and shCXCL5 #2 groups, n=7, shCXCL5 #3, n=8). ****P<0.0001. two-tailed t-test.
# as §4
# Raw264.7 cells = assay: RT-qPCR of M2 macrophage signature genes in Raw264.7 cells with conditioned media; assay type: cell-based, mouse; conditions: conditioned media from APC-KO MC38 cells, 30 h
# Protocol: as §5, §4
Axl phosphorylation (Axl),Compound,effect on Gas6-promoted cancer cell growth [1],sensitivity of APC-deficient vs APC-intact MC38 cells [2],growth of CT26 tumors co-injected with pre-treated macrophages (CT26),macrophage recruitment with CM from APC-KO TDO2 depleted MC38 cells (Raw264.7),Gas6 expression (BMDM [3]),M2 macrophage markers (BMDM [4]),M2 macrophage markers decreased by TDO2 knockdown (Raw264.7 cells)
reduce Axl phosphorylation,Nc1nc(Nc2ccc3c(c2)CCC(N2CCCC2)CC3)nn1-c1cc2c(nn1)-c1ccccc1CCC2 (centres unmarked) [R428],reversed by R428 treatment,increased sensitivity,–,–,–,–,–
–,"CXCL5: recombinant CXCL5 protein, cytokine",–,–,promoted the growth of CT26 significantly,rescue of macrophage recruitment,increased Gas6 expression,M2 macrophage markers increased,rescued by CXCL5 supplementation
